Laboratory results published in article PMC7026418, “The kinase polypharmacology landscape of clinical PARP inhibitors” (Scientific Reports, 2020).

Columns and labels:
MYLK4 = target: T1, MYLK4 (Homo sapiens, UniProt Q86YV6); assay: HotSpot radiometric kinase assay at […] (Km ATP), follow-up of KinomeScan binding; format: biochemical; details: read-out: Rucaparib
T1 sequence (Q86YV6 1-388): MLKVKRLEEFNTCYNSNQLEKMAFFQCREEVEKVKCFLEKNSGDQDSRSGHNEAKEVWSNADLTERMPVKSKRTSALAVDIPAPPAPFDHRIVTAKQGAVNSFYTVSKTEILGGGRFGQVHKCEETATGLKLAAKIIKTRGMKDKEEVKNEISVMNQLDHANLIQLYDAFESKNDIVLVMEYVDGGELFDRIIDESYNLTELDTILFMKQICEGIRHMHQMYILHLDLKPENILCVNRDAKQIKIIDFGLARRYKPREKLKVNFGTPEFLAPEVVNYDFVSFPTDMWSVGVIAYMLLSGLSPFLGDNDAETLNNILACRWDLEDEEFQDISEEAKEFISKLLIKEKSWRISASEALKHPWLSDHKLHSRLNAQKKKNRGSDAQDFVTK

FLT3(ITD) = FLT3(ITD) (Homo sapiens, UniProt P36888); assay: biochemical; set-up: DiscoveRx KINOMEscan active site-directed competition binding; percent of control kinase bound to immobilised ligand; details: binding competition, % of control
Sequence of FLT3(ITD) (P36888 564-993, change not shown): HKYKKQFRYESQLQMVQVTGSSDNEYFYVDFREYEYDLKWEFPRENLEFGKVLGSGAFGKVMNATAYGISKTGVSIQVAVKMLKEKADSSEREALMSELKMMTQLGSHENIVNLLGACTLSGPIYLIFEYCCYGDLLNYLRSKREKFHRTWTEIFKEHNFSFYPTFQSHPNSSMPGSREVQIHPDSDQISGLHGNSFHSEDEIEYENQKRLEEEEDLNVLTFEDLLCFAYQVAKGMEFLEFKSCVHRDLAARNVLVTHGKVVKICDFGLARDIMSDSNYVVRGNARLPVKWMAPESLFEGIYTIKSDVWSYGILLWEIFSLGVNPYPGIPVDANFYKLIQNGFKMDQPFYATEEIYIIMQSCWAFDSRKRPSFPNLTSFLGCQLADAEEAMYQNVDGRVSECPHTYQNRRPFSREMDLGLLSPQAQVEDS

TSSK3 = target: T2, TSSK3 (Homo sapiens, UniProt Q96PN8); assay: biochemical; set-up: Reaction Biology HotSpot radiometric 33P-ATP catalytic assay at Km ATP; percent inhibition versus DMSO, mean n=2; details: Km ATP
T2 sequence (Q96PN8 1-268): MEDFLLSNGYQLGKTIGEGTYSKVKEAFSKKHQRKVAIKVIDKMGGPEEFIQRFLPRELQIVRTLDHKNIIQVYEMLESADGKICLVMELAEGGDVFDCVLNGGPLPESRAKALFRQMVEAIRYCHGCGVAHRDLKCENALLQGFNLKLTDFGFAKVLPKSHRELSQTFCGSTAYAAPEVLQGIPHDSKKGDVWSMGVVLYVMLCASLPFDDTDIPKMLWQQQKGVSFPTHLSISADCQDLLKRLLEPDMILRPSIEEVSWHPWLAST
Description: (§1) Unreacted phosphate is removed via washing the filters.

CDK16 = target: T3, CDK16 (Homo sapiens, UniProt Q00536); assay: biochemical; set-up: Reaction Biology HotSpot radiometric 33P-ATP catalytic assay at Km ATP; percent inhibition versus DMSO, mean n=2; details: Km ATP
T3 construct: with cyclin Y
T3 sequence (Q00536 whole entry): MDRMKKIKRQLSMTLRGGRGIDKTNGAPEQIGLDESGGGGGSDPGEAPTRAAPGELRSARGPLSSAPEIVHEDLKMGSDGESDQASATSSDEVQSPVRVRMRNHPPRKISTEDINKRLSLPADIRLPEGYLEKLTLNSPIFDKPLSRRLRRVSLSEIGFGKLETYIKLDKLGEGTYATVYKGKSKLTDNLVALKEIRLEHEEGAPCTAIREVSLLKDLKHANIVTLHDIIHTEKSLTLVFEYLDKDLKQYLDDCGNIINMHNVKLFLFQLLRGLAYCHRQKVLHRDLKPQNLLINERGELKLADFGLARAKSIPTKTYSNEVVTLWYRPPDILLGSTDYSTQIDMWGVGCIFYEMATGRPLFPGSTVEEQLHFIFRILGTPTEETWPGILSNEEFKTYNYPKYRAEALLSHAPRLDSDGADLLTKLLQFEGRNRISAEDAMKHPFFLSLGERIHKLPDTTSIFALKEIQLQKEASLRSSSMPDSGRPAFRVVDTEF
T3 sequence (Q8ND76 2-341 partner): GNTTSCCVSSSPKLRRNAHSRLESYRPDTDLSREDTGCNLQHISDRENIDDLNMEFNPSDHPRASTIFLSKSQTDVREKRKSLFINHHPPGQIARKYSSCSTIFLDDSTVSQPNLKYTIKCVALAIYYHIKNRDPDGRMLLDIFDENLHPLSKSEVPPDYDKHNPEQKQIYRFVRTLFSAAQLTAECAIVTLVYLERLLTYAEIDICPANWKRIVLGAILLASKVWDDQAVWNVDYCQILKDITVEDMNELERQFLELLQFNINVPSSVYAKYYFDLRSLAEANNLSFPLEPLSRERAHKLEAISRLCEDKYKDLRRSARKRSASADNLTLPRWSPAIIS
Description: as §1

CDK4-cyclinD3 = CDK4-cyclinD3 (Homo sapiens, UniProt P11802); assay: biochemical; set-up: Reaction Biology HotSpot radiometric 33P-ATP catalytic assay at Km ATP; percent inhibition versus DMSO, mean n=2; details: Km ATP
Sequence of CDK4-cyclinD3 (P11802 whole entry): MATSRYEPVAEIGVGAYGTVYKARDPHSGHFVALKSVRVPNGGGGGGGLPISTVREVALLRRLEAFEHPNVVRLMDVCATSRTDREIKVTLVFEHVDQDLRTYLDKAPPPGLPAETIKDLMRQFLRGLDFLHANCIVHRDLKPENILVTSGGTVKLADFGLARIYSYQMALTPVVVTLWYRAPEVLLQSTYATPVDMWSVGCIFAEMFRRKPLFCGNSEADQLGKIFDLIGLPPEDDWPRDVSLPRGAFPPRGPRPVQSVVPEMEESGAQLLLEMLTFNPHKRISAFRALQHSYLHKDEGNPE
Sequence of CDK4-cyclinD3 (P30281 whole entry partner): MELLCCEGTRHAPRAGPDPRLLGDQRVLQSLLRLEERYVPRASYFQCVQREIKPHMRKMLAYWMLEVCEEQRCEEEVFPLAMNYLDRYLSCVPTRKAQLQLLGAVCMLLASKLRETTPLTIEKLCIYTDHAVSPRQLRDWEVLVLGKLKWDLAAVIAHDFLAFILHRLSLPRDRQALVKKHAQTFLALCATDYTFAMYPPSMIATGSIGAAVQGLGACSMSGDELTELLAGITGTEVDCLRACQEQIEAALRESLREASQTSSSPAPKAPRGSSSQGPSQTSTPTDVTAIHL
Description: as §1

STK17A = STK17A (Homo sapiens, UniProt Q9UEE5); assay: biochemical; set-up: Reaction Biology HotSpot radiometric 33P-ATP catalytic assay at Km ATP; percent inhibition versus DMSO, mean n=2; details: Km ATP
Sequence of STK17A (Q9UEE5 whole entry): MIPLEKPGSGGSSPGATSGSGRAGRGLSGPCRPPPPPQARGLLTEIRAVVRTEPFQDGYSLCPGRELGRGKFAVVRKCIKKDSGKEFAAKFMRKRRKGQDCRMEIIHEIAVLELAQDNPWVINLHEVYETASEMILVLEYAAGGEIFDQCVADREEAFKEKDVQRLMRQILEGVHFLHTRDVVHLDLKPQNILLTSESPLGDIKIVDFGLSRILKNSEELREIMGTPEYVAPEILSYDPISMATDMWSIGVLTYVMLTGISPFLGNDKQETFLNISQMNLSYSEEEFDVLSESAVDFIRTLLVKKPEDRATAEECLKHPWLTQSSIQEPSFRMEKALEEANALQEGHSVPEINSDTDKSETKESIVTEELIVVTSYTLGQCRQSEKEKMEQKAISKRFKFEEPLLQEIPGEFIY
Description: as §1

DYRK1B = DYRK1B (Homo sapiens, UniProt Q9Y463); assay: biochemical; details: read-out: % inhibition
Sequence of DYRK1B (Q9Y463 whole entry): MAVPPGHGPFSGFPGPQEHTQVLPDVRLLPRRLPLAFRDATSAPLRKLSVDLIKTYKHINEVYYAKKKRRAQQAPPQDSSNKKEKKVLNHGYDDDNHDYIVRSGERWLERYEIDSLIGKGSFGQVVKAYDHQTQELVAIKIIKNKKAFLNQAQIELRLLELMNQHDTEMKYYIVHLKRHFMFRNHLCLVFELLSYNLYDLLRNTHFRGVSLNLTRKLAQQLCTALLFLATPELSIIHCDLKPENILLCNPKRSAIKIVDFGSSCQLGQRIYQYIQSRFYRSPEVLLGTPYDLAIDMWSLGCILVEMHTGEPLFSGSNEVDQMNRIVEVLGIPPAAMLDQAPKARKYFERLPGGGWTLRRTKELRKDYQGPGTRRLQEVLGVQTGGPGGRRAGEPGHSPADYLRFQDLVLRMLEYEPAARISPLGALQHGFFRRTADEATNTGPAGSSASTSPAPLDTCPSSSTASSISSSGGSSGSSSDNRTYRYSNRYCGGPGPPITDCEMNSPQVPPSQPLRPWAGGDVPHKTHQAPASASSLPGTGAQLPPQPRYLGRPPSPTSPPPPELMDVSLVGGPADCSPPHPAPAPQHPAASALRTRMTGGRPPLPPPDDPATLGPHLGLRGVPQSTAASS
Description: Reaction Biology’s HotSpot platform (http://www.reactionbiology.com)[40], which employs a radiometric assay to measure phosphorylation of substrate, was used to validate the hits from the kinome binding assay. The radiometric assay is designed to directly detect the true product without the use of modified substrates, coupling enzymes, or detection antibodies. Test or control compounds are incubated with kinase, substrate, cofactors, and radioisotope-labelled ATP (33P-ɣ-ATP). The reaction mixtures are then spotted onto filter papers, which bind the radioisotope-labelled catalytic product, for subsequent measurement. Unreacted phosphate is removed via washing the filters[41]. Next, we decided to validate the observed activities in an orthogonal experimental method, namely direct inhibition of kinase catalytic activity using Reaction Biology’s HotSpot platform (http://www.reactionbiology.com)[40]. This platform employs a widely-used and validated radiometric assay which measures inhibition of the incorporation of radiolabelled phosphate into protein substrate[41].

PIM2 = PIM2 (Homo sapiens, UniProt Q9P1W9); assay: biochemical; set-up: Reaction Biology HotSpot radiometric 33P-ATP catalytic assay at Km ATP; percent inhibition versus DMSO, mean n=2; details: Km ATP
Sequence of PIM2 (Q9P1W9 whole entry): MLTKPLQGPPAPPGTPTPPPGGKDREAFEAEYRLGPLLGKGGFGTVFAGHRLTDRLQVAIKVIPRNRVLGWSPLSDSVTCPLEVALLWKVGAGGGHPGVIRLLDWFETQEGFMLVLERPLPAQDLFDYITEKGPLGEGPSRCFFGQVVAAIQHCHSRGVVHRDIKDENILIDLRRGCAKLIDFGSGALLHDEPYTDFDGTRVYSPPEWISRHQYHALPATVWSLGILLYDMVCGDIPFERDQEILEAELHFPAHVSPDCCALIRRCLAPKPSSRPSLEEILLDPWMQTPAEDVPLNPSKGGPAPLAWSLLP
Description: as §1

HIPK1 = HIPK1 (Homo sapiens, UniProt Q86Z02); assay: biochemical; details: read-out: Niraparib
Sequence of HIPK1 (Q86Z02 whole entry): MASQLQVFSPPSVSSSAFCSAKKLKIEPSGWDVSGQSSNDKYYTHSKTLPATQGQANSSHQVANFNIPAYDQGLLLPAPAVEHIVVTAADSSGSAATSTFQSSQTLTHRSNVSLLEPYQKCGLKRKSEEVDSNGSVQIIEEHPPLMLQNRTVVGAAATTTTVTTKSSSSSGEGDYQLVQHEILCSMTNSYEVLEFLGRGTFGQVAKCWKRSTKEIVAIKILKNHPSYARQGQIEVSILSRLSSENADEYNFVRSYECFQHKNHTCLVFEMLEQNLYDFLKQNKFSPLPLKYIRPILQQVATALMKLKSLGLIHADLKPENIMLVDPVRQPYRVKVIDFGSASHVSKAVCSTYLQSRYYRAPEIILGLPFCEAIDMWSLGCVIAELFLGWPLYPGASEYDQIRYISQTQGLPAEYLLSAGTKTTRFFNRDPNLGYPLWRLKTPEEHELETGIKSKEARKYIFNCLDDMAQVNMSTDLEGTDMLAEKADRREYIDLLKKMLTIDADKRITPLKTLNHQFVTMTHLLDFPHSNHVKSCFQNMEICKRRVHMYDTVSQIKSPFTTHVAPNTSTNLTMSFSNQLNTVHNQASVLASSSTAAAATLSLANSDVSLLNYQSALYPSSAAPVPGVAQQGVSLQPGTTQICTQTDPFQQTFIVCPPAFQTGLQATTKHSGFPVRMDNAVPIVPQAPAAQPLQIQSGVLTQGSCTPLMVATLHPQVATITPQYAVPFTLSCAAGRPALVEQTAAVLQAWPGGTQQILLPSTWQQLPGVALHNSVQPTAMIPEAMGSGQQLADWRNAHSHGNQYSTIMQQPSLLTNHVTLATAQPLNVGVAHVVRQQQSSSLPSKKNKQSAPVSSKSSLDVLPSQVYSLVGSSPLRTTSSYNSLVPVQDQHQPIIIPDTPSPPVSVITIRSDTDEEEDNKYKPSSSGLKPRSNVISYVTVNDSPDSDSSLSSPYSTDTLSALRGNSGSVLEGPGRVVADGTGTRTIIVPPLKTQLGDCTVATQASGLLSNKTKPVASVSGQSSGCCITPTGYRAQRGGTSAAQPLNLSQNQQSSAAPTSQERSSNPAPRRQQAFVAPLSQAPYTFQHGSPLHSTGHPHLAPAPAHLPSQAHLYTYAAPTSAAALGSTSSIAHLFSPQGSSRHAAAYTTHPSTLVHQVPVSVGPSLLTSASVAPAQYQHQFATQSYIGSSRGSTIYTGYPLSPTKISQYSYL

Compound	inhibition at 1 µM (MYLK4) [%]	Rucaparib / %Ctrl @ 10000nM (FLT3(ITD)) [%]	inhibition at 1 µM (TSSK3) [%]	inhibition at 1 µM (CDK16) [%]	inhibition at 1 µM (CDK4-cyclinD3) [%]	inhibition at 1 µM (STK17A) [%]	inhibition at 1 µM (DYRK1B) [%]	inhibition at 1 µM (PIM2) [%]	inhibition at 1 µM (HIPK1) [%]
CNCc1ccc(-c2[nH]c3cc(F)cc4c3c2CCNC4=O)cc1 [Rucaparib]	36	41	-1	82	10	-6	–	–	–
NC(=O)c1cccc2cn(-c3ccc([C@@H]4CCCNC4)cc3)nc12 [Niraparib]	–	–	–	–	–	–	82	-5	40
